From patent US5279824A, “Pharmaceutical formulation containing heparin and endo-beta-glucuronidase, useful for the treatment of thrombosis” (Merck Patent GmbH, priority 1988, dated 1994)

Tests used:
leech hyaluronidase [1] = assay: Leech hyaluronidase activity in the presence of tPA with and without heparin; type: biochemical; conditions: tPA range of concentrations; presence or absence of heparin 200 USP/ml; FIG. 5
Description: (§1) Leech hyaluronidase (68 IU/ml was preincubated for one hour at 25° C. in the presence of concentrations of heparin (0-2500 USP/1 ml) in 20 mM methanesulphonic acid (MES), 0.1M NaCl, pH 5.0 buffer and then added to hyaluronic acid (5 mg/ml) and the incubation continued for one hour at 37° C. The generation of reducing sugars was determined by terminating the reactions by the addition of 1:1 3,5-dinitrosalicylic acid reagent (100 ml: 5% w/v dinitrosalicylic acid in 2M NaOH plus 250 ml: 60% w/v sodium potassium tartrate in water, made up to 500 ml with water) and heating for 5 min in vigorously boiling water. After heating, assay tubes were rapidly cooled to ambient temperature and absorbances at 540 nm measured spectrophotometrically. Suitable blanks and no-enzyme controls were included in the assay. The results are expressed as a percentage of the absorbances obtained in control incubations containing no heparin.
A) Leech hyaluronidase (68 IU/ml) was mixed with and without heparin (200 USP/ml) and human tissue plasminogen activator (tPA) in a range of concentrations ([…]) and with hyaluronic acid (5 mg/ml) and incubated for 1 h at 37° C. Reducing sugars were determined (Example 1) and results expressed as a percentage of controls containing no tPA.

Rats = assay: Indian ink spreading after subcutaneous injection in rats; type: in vivo, rat; conditions: heparin 250 to 2500 USP/ml with leech hyaluronidase
Description: Leech hyaluronidase (100 IU/ml) was mixed 1:1 with Indian ink in 20 mM MES, 0.1M NaCl pH 5.0, buffer in the presence or absence of heparin (250 to 2500 USP/ml). Rats were injected subcutaneously with 50 microlitres of this mixture and spreading allowed to occur over a period of 1 to 3 hours. The rats were sacrificed and the skin removed for observation of the area of spreading.

[2] = tested on: mammalian testicular hyaluronidase; assay: Reducing sugar assay of mammalian testicular hyaluronidase preincubated with heparin; type: biochemical; conditions: heparin above 3 USP/ml; MTH 75 IU/ml; preincubated one hour at 25° C.
Description: as §1, with “heparin. […] MTH (75 IU/ml) was preincubated for one hour at 25° C. with heparin (0 to 250 USP/ml) in 20 mM MES, 0.1M NaCl pH 5.0, buffer and then added (1:10 final dilution) to hyaluronate and incubated for a further one hour at 37° C. Activity was determined using the reducing sugar assay (described above) and is expressed as a percentage of controls without heparin. […]” for “heparin.”

leech hyaluronidase [3] = assay: Leech hyaluronidase activity with heparin, with and without hementin; type: biochemical; conditions: 60 min
Description: as §1
B) Leech hyaluronidase (75 IU/ml) was mixed with and without hementin (180 IU/ml) (where IU is defined as one microgram of fibrinogen incoagulated/min/37° C.) end incubated with heparin (1.5-1500 USP/ml) for one hour at 25° C. prior to addition to hyaluronic acid (2 mg/ml) and further incubation for one hour at 37° C. Reducing sugar levels were determined (see Example 1) and the results expressed as a percentage of controls containing no heparin. (Table 3).

whole blood = assay: Whole blood clotting time after incubation of heparin with or without leech hyaluronidase
Description: Heparin (0-150 USP/ml) was incubated for one hour at […] either with or without leech hyaluronidase (50 IU/ml) and in 20 mM MES, 0.1M NaCl, pH 5.0 buffer; then whole blood was added to determine the effect on clottability.

[4] = tested on: mammalian testicular hyaluronidase; conditions: Mathews & Dorfman, Physiological Review, 35; cited from earlier work
[5] = Clotting time of patient plasma before and after heparinisation; type: in vivo, human; conditions: patient plasma after heparinisation with 30,000 USP/24 h; 40 seconds before
Description: B) Leech hyaluronidase (200 IU/ml) was preincubated for one hour at 25° C. with and without plasma and heparinised plasma in 20 mM MES, 0.1M NaCl, pH 5.0 buffer. Plasma was obtained from a patient before and after heparinisation with 30,000 USP/24 h resulting in an increase in the clotting time of 40 seconds to 80 seconds. Incubations were continued by addition to hyaluronic acid (see section A, above) and reducing sugars determined as above (Example 1).

leech hyaluronidase [6] = assay: Reducing sugar assay of leech hyaluronidase preincubated with heparin; type: biochemical; conditions: heparin up to 2500 USP/ml; preincubated one hour at 25° C.; enzyme 68 IU/ml; FIG. 1
Description: as §1

tPA: human tissue plasminogen activator, a clot-lytic agent
leech hyaluronidase activity, percentage of controls containing no tPA (leech hyaluronidase [1]): no effect

Heparin
effect of heparin on enzyme-induced ink spreading (Rats): not significantly affected | mammalian testicular hyaluronidase activity, percentage of controls without heparin [2]: completely inhibited | leech hyaluronidase activity, % Control (no heparin) (leech hyaluronidase [3]; Heparin 1.5 USP/ml, With Hementin (180 IU/ml)): 103% | leech hyaluronidase activity, % Control (no heparin) (leech hyaluronidase [3]; Heparin 1.5 USP/ml, Without Hementin): 97.5% | leech hyaluronidase activity, % Control (no heparin) (leech hyaluronidase [3]; Heparin 15 USP/ml, With Hementin (180 IU/ml)): 93.8% | leech hyaluronidase activity, % Control (no heparin) (leech hyaluronidase [3]; Heparin 15 USP/ml, Without Hementin): 100% | leech hyaluronidase activity, % Control (no heparin) (leech hyaluronidase [3]; Heparin 150 USP/ml, With Hementin (180 IU/ml)): 100% | leech hyaluronidase activity, % Control (no heparin) (leech hyaluronidase [3]; Heparin 150 USP/ml, Without Hementin): 103% | leech hyaluronidase activity, % Control (no heparin) (leech hyaluronidase [3]; Heparin 1500 USP/ml, With Hementin (180 IU/ml)): 109% | leech hyaluronidase activity, % Control (no heparin) (leech hyaluronidase [3]; Heparin 1500 USP/ml, Without Hementin): 103% | Whole Blood Clotting Time (whole blood; Heparin 1.0 USP/ml, Leech Enzyme (50IU/ml)): 14.5 min | Whole Blood Clotting Time (whole blood; Heparin 1.0 USP/ml, without leech enzyme): 14.5 min | Whole Blood Clotting Time (whole blood; Heparin 2.5 USP/ml, Leech Enzyme (50IU/ml)): 24.5 min | Whole Blood Clotting Time (whole blood; Heparin 2.5 USP/ml, without leech enzyme): 24.0 min | Whole Blood Clotting Time (whole blood; Heparin 5 USP/ml, Leech Enzyme (50IU/ml)): NC (no clot formation before 20 minutes at 37° C.) | Whole Blood Clotting Time (whole blood; Heparin 5 USP/ml, without leech enzyme): NC (no clot formation before 20 minutes at 37° C.) | Whole Blood Clotting Time (whole blood; Heparin 10 USP/ml, Leech Enzyme (50IU/ml)): NC (no clot formation before 20 minutes at 37° C.) | Whole Blood Clotting Time (whole blood; Heparin 10 USP/ml, without leech enzyme): NC (no clot formation before 20 minutes at 37° C.) | Whole Blood Clotting Time (whole blood; Heparin 20 USP/ml, Leech Enzyme (50IU/ml)): NC (no clot formation before 20 minutes at 37° C.) | Whole Blood Clotting Time (whole blood; Heparin 20 USP/ml, without leech enzyme): NC (no clot formation before 20 minutes at 37° C.) | inhibition of mammalian testicular hyaluronidase by heparin [4]: inhibited competitively | clotting time [5]: 80 s | leech hyaluronidase activity, percentage of control incubations containing no heparin (leech hyaluronidase [6]): no significant effect
